According to PubChem BioAssay (NCI):
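Abbreviation: GI50, concentration required for 50% inhibition of growth. TGI: concentration producing complete growth inhibition.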

Legend:
Assay in all cases: growth of human tumour cells (NCI), 384-well format
HOP-92 NSCLC = system: HOP-92 NSCLC
SK-MEL-28 melanoma = system: SK-MEL-28 melanoma
HS 578T breast = system: HS 578T breast
HL-60(TB) leukemia = system: HL-60(TB) leukemia
COLO 205 colon = system: COLO 205 colon
TK-10 renal = system: TK-10 renal
HCC-2998 colon = system: HCC-2998 colon
T-47D breast = system: T-47D breast
HCT-116 colon = system: HCT-116 colon
NCI/ADR-RES ovarian = system: NCI/ADR-RES ovarian
LOX IMVI melanoma = system: LOX IMVI melanoma
SN12C renal = system: SN12C renal
SF-539 CNS = system: SF-539 CNS
IGROV1 ovarian = system: IGROV1 ovarian
MCF7 breast = system: MCF7 breast
DU-145 prostate = system: DU-145 prostate
K-562 leukemia = system: K-562 leukemia
RXF 393 renal = system: RXF 393 renal
CCRF-CEM leukemia = system: CCRF-CEM leukemia
OVCAR-3 ovarian = system: OVCAR-3 ovarian
SK-OV-3 ovarian = system: SK-OV-3 ovarian
MDA-MB-231 breast = system: MDA-MB-231 breast
OVCAR-4 ovarian = system: OVCAR-4 ovarian
SK-MEL-5 melanoma = system: SK-MEL-5 melanoma
786-0 renal = system: 786-0 renal
EKVX NSCLC = system: EKVX NSCLC
MDA-MB-435 melanoma = system: MDA-MB-435 melanoma
NCI-H460 NSCLC = system: NCI-H460 NSCLC
NCI-H23 lung = system: NCI-H23 lung
UACC-62 melanoma = system: UACC-62 melanoma

O=[N+]([O-])c1ccc(Nc2ccccc2-c2ccccc2)c2nonc12
TGI (HOP-92 NSCLC): 24.8 µM
GI50 (SK-MEL-28 melanoma): 13.2 µM
TGI (SK-MEL-28 melanoma): 29.7 µM
GI50 (HS 578T breast): 10.4 µM
TGI (HS 578T breast): 23.8 µM
GI50 (HL-60(TB) leukemia): 13.3 µM
TGI (HL-60(TB) leukemia): 26.5 µM
GI50 (COLO 205 colon): 17.5 µM
TGI (COLO 205 colon): 42.3 µM
GI50 (TK-10 renal): 14 µM
TGI (TK-10 renal): 34.8 µM
GI50 (HCC-2998 colon): 22.3 µM
TGI (HCC-2998 colon): 40.8 µM
GI50 (T-47D breast): 7.99 µM
TGI (T-47D breast): 30.9 µM
GI50 (HCT-116 colon): 13.9 µM
TGI (HCT-116 colon): 28.2 µM
GI50 (NCI/ADR-RES ovarian): 12.7 µM
TGI (NCI/ADR-RES ovarian): 27.9 µM
GI50 (LOX IMVI melanoma): 15.9 µM
TGI (LOX IMVI melanoma): 29.7 µM
GI50 (SN12C renal): 11.9 µM
TGI (SN12C renal): 28.6 µM
GI50 (SF-539 CNS): 17.4 µM
TGI (SF-539 CNS): 33.2 µM
GI50 (IGROV1 ovarian): 16.1 µM
TGI (IGROV1 ovarian): 36.2 µM
GI50 (MCF7 breast): 13.8 µM
TGI (MCF7 breast): 31.3 µM
GI50 (DU-145 prostate): 16.3 µM
TGI (DU-145 prostate): 51.2 µM
GI50 (K-562 leukemia): 11.5 µM
TGI (K-562 leukemia): 28.6 µM
GI50 (RXF 393 renal): 17.4 µM
TGI (RXF 393 renal): 32.2 µM
GI50 (CCRF-CEM leukemia): 11.3 µM
TGI (CCRF-CEM leukemia): 23.6 µM
GI50 (OVCAR-3 ovarian): 11.9 µM
TGI (OVCAR-3 ovarian): 25.1 µM
GI50 (SK-OV-3 ovarian): 19.9 µM
TGI (SK-OV-3 ovarian): 40.4 µM
GI50 (MDA-MB-231 breast): 16.2 µM
TGI (MDA-MB-231 breast): 35.1 µM
GI50 (OVCAR-4 ovarian): 7.68 µM
TGI (OVCAR-4 ovarian): 28.4 µM
GI50 (SK-MEL-5 melanoma): 12.9 µM
TGI (SK-MEL-5 melanoma): 25.7 µM
GI50 ([…]-0 renal): 12.6 µM
TGI (786-0 renal): 25.6 µM
GI50 (EKVX NSCLC): 13.2 µM
TGI (EKVX NSCLC): 30 µM
GI50 (MDA-MB-435 melanoma): 10.7 µM
TGI (MDA-MB-435 melanoma): 30.1 µM
GI50 (NCI-H460 NSCLC): 11 µM
TGI (NCI-H460 NSCLC): 24.1 µM
GI50 (NCI-H23 lung): 5.93 µM
TGI (NCI-H23 lung): 20.5 µM
GI50 (UACC-62 melanoma): 13.6 µM
TGI (UACC-62 melanoma): 28.3 µM
